{
  "source": "paper PMC10794137",
  "about": "“A new antibiotic traps lipopolysaccharide in its intermembrane transporter” (Nature, 2024)",
  "key": {"[1]": {"tested_on": "Acinetobacter baylyi ΔlpxM", "assay": "MIC by broth microdilution, A. baylyi ΔlpxM", "format": "cell-based", "method": "Culture, genetic manipulation and MIC measurements of A. baylyi ADP1 were conducted according to previously reported procedures[46],[51]. Point mutants were constructed in a two-step procedure following ref. [52] with the introduction and excision of the integration cassette at codon 66 of pepA, wherein the excising fragment of otherwise wild-type chromosomal DNA sequence from codon 406 of pepA to codon 193 of lptG bore the desired mutation and the resulting clones were screened by amplicon sequencing from codon 81 of HolC to codon 501 of GpmI, whereas lpxM deletion was achieved following the same procedure except that the integration cassette insertion and excision removed codons 79–279 of lpxM to avoid interference with neighbouring and overlapping genes that a larger deletion may risk and replaced codon 78 with an ochre stop codon to prevent a readthrough resulting in an aberrant fusion, with the excising fragment sequence spanning from codon 211 of sppA to codon 497 of ComA and verified by amplicon sequencing from codon 94 of MhpC to codon 327 of ComA as well as by absence of a PCR product corresponding to a region spanning codons 79 to 279 of lpxM to check for duplications. A deletion of the lon protease was made in the same manner to produce the stain used for expression and purification of LptB2FG to mimic the BL21 strain of E. coli used in the rest of purifications, for which the region encompassing 72 base pairs (bp) upstream of the lon start codon and 1 bp downstream of the lon stop codon was excised after being replaced with the same integration cassette, yielding a markerless deletion, with the excising fragment sequence spanning from codon 491 of ArnT to codon 40 of 45_DOPA_Dioxygenase and verified by amplicon sequencing spanning from codon 322 of ArnT to codon 221 of 45_DOPA_Dioxygenase as well as by absence of a PCR product corresponding to a region spanning from codons 328 to 768 of lon to check for duplications. Following amplicon confirmation, three validated isolates of each constructed mutant were tested for susceptibility to a panel of antibiotics with […] known mechanisms of action as a further validation step to ensure congruence of phenotypes across replicates, which was confirmed in all cases and one of the validated replicates was later used for MIC measurements reported here.\nMIC determinations were performed by broth microdilution in line with CLSI guidelines (CLSI M07-A11 2018). Bacterial inocula were prepared by diluting overnight liquid cultures in LB. Antibacterial panels containing antibacterial solutions were inoculated with an appropriate volume of inoculum to give a final inoculum of about 5 × 10^5 c.f.u. ml^−1 and desired test concentrations of antibacterial agents in standard 96-well plates with 0.1 ml of culture per well. The test plates were incubated for 20–24 h and optical density (OD600) was recorded using a plate reader. MIC values corresponded to the lowest compound concentration inhibiting bacterial growth beyond which OD ceased to decrease."}, "[2]": {"tested_on": "LptB2F^E249KGC", "assay": "LPS release assay, LptB2F(E249K)GC", "format": "biochemical, Acinetobacter baylyi", "conditions": "LptF E249K complex, E. coli LPS", "method": "Proteoliposomes were prepared as described previously. Aqueous E. coli polar lipid extract (Avanti Polar Lipids) (30 mg ml^−1) and aqueous LPS from E. coli EH100 (Ra mutant; Sigma) (2 mg ml^−1) were sonicated briefly for homogenization. For experiments testing the effect of LPS structure, we used LPS isolated from either GKM374 (BL21DE3 eptA::catR arnA::kanR eptC::gentR) or TXM418 (BL21DE3 eptA::catR arnA::FRT eptB::gentR lpxM::kanR) as described previously. A mixture of 20 mM Tris-HCl (pH 8.0), 150 mM NaCl, 7.5 mg ml^−1 of E. coli polar lipids, 0.5 mg ml^−1 of LPS and 0.25% DDM was prepared and kept on ice for 10 min. Purified LptB2FGC or LptB2FG was added to a final concentration of 0.86 μM and the mixture was left on ice for 20 min. The mixture was diluted 100-fold with cold 20 mM Tris-HCl (pH 8.0) and 150 mM NaCl and kept on ice for 20 min. The proteoliposomes were pelleted (300,000g, 2 h, 4 °C), resuspended in 20 mM Tris-HCl (pH 8.0) and 150 mM NaCl, diluted 100× and centrifuged (300,000g, 2 h, 4 °C). The pellets were resuspended in a mixture of 20 mM Tris-HCl (pH 8.0), 150 mM NaCl and 10% glycerol (250 μl per 100 μl of the original predilution solution), homogenized by sonication, flash frozen and stored at −80 °C until use.\nThe amounts of release of LPS from proteoliposomes to LptA were measured as previously described. […]"}},
  "note": "“And” between values parts separate entries of the source, which are not always exact repeats. Identical values can stand only once.",
  "data": [
    {"compound": "CN1C(=O)[C@H](CCCCN)NC(=O)[C@H](CCCN)NCc2cccnc2Sc2c(Cl)ccc(-c3ccc(N)nc3)c2CNC(=O)[C@@H]1Cc1c[nH]c2ccccc12", "note": "[Compound 1]", "values": [
      {"measurement": "Fold less susceptible than wild type", "setting": "[1]; A. baylyi lpxM deletion strain vs wild type", "result": 30, "unit": "fold"},
      {"measurement": "MIC", "setting": "[1]; A. baylyi ΔlpxM", "result": "0.3 µM and 0.2 µg/mL"},
      {"measurement": "Inhibition of LPS release to LptA", "setting": "[2]", "result": "did not block LPS release"}
    ]}
  ]
}
